Measured values: patent publication US11497813B2, “Bortezomib conjugates and methods using same” (Frank EBETINO et al., priority 2015, dated 2022)

What was measured:
human MPCs = test: Osteoblast differentiation of human MPCs/MSCs (ALP staining); format: cell-based
Method: FIG. 5A is a scheme of an exemplary synthesis of compound BP-Btz1. FIG. 5B is a series of images of bone slices pre-incubated with 1 μM BP-Btz1, Btz, or bisphosphonate (BP) overnight. Drug solutions were removed and bone slices were washed with PBS extensively. […] (BM) cells from UB^G76V-GFP mice were cultured on bone slices in the presence of M-CSF and RANKL for 9 days. Top images (a): GFP^+ cells were observed under a fluorescence microscope and GFP signal intensity was quantified. Middle images (b): bone slices were fixed and subjected to TRAP staining for osteoclasts (OCs). OC #/slice were counted. Bottom images (c): cells were removed from slices. Toluidine blue staining was performed and pit areas/slice were counted. […] The ALP^+ areas were measured by Image J. *P<0.05 vs. Btz-treated cells.
1. […] Following proteasome inhibitor administration, Ub^G76V accumulates and GFP fluorescence is readily apparent. GFP^+ OCs were detected at 4 and 8 hrs after adding Btz to OC cultures, which disappeared at 24 hrs. […] The number and area of OCs and resorption pits are assessed. The appearance, intensity and distribution of GFP^+ cells on bone slices and plastic surrounding bone slices during OC formation is observed and recorded. […] Area of ALP^+ and mineralized bone nodule, and the expression levels of OB marker genes (ALP, osteocalcin, Runx2) are measured. […]

thymus = conditions: mice, cited from earlier work

SMILES | osteoblast differentiation (human MPCs) | splenocytes numbers (thymus; Btz injection) | total and CD4+ and CD8+ thymocyte numbers (thymus; Btz injection) | number of T cells in the thymus (thymus; as early as 3 days after administration)
CC(C)C[C@H](NC(=O)[C@H](Cc1ccccc1)NC(=O)c1cnccn1)B1OCCN(CCOC(=O)NC(P(=O)(O)O)P(=O)(O)O)CCO1 [BP-Btz1] | stimulates osteoblast differentiation |  |  | 
CC(C)C[C@H](NC(=O)[C@H](Cc1ccccc1)NC(=O)c1cnccn1)B(O)O [Btz, [(1R)-3-methyl-1-[[(2S)-1-oxo-3-phenyl-2[(pyrazinylcarbonyl)amino]propyl]amino]butyl] boronic acid] |  | not | markedly decreases | significantly reduces
